Experimental data: patent US20230157952A1, “METHOD FOR IMPROVING THE STABILITY OF A PHARMACEUTICAL COMPOSITION COMPRISING A HIGH PENETRATION DRUG, AND THE PHARMACEUTICAL COMPOSITION OBTAINED THEREFROM” (Techfields Inc., priority 2020, published 2023)

Assay: Effect of temperature (and pH) on the stability of the solution (purity)
Assay type: physicochemical
Conditions: 7% solution in water

CCN(CC)CCOC(=O)COC(=O)Cc1c(C)n(C(=O)c2ccc(Cl)cc2)c2ccc(OC)cc12.Cl
Purity(%) at day 0 (pH 1.0, day 0): 98.1 ± 0.3% | Purity(%) at day 21 (5° C.) (pH 1.0, day 21, 5° C.): 91.9 ± 0.3% | Purity(%) at day 21 (25° C.) (pH 1.0, day 21, 25° C.): 67.3 ± 0.3% | Purity(%) at day 21 (40° C.) (pH 1.0, day 21, 40° C.): 15.6 ± 0.3% | Purity (%) at day 21 (60° C.) (pH 1.0, day 21, 60° C.): 0% | Purity(%) at day 0 (pH 2.0, day 0): 98.3 ± 0.3% | Purity(%) at day 21 (5° C.) (pH 2.0, day 21, 5° C.): 95.7 ± 0.2% | Purity(%) at day 21 (25° C.) (pH 2.0, day 21, 25° C.): 82.2 ± 0.2% | Purity(%) at day 21 (40° C.) (pH 2.0, day 21, 40° C.): 26.7 ± 0.3% | Purity (%) at day 21 (60° C.) (pH 2.0, day 21, 60° C.): 0% | Purity(%) at day 0 (pH 3.0, day 0): 98.5 ± 0.2% | Purity(%) at day 21 (5° C.) (pH 3.0, day 21, 5° C.): 98.0 ± 0.2% | Purity(%) at day 21 (25° C.) (pH 3.0, day 21, 25° C.): 93.0 ± 0.2% | Purity(%) at day 21 (40° C.) (pH 3.0, day 21, 40° C.): 47.7 ± 0.3% | Purity (%) at day 21 (60° C.) (pH 3.0, day 21, 60° C.): 0% | Purity(%) at day 0 (pH 3.7, day 0): 98.7 ± 0.1% | Purity(%) at day 21 (5° C.) (pH 3.7, day 21, 5° C.): 98.2 ± 0.1% | Purity(%) at day 21 (25° C.) (pH 3.7, day 21, 25° C.): 97.1 ± 0.1% | Purity(%) at day 21 (40° C.) (pH 3.7, day 21, 40° C.): 57.6 ± 0.2% | Purity (%) at day 21 (60° C.) (pH 3.7, day 21, 60° C.): 13.9 ± 0.3% | Purity(%) at day 0 (pH 4.0, day 0): 98.7 ± 0.1% | Purity(%) at day 21 (5° C.) (pH 4.0, day 21, 5° C.): 98.4 ± 0.1% | Purity(%) at day 21 (25° C.) (pH 4.0, day 21, 25° C.): 97.4 ± 0.2% | Purity(%) at day 21 (40° C.) (pH 4.0, day 21, 40° C.): 68.7 ± 0.3% | Purity (%) at day 21 (60° C.) (pH 4.0, day 21, 60° C.): 19.2 ± 0.3% | Purity(%) at day 0 (pH 4.3, day 0): 98.8 ± 0.2% | Purity(%) at day 21 (5° C.) (pH 4.3, day 21, 5° C.): 98.5 ± 0.1% | Purity(%) at day 21 (25° C.) (pH 4.3, day 21, 25° C.): 97.5 ± 0.1% | Purity(%) at day 21 (40° C.) (pH 4.3, day 21, 40° C.): 68.6 ± 0.3% | Purity (%) at day 21 (60° C.) (pH 4.3, day 21, 60° C.): 17.9 ± 0.2% | Purity(%) at day 0 (pH 4.6, day 0): 98.8 ± 0.2% | Purity(%) at day 21 (5° C.) (pH 4.6, day 21, 5° C.): 98.4 ± 0.2% | Purity(%) at day 21 (25° C.) (pH 4.6, day 21, 25° C.): 96.5 ± 0.2% | Purity(%) at day 21 (40° C.) (pH 4.6, day 21, 40° C.): 53.7 ± 0.2% | Purity (%) at day 21 (60° C.) (pH 4.6, day 21, 60° C.): 14.8 ± 0.3% | Purity(%) at day 0 (pH 5.0, day 0): 98.6 ± 0.2% | Purity(%) at day 21 (5° C.) (pH 5.0, day 21, 5° C.): 97.1 ± 0.2% | Purity(%) at day 21 (25° C.) (pH 5.0, day 21, 25° C.): 93.8 ± 0.2% | Purity(%) at day 21 (40° C.) (pH 5.0, day 21, 40° C.): 39.8 ± 0.3% | Purity (%) at day 21 (60° C.) (pH 5.0, day 21, 60° C.): 3.2 ± 0.2% | Purity(%) at day 0 (pH 6.0, day 0): 98.4 ± 0.2% | Purity(%) at day 21 (5° C.) (pH 6.0, day 21, 5° C.): 95.8 ± 0.2% | Purity(%) at day 21 (25° C.) (pH 6.0, day 21, 25° C.): 86.9 ± 0.2% | Purity(%) at day 21 (40° C.) (pH 6.0, day 21, 40° C.): 28.8 ± 0.2% | Purity (%) at day 21 (60° C.) (pH 6.0, day 21, 60° C.): 0% | Purity(%) at day 0 (pH 7.0, day 0): 98.1 ± 0.2% | Purity(%) at day 21 (5° C.) (pH 7.0, day 21, 5° C.): 90.2 ± 0.3% | Purity(%) at day 21 (25° C.) (pH 7.0, day 21, 25° C.): 59.7 ± 0.3% | Purity(%) at day 21 (40° C.) (pH 7.0, day 21, 40° C.): 11.2 ± 0.4% | Purity (%) at day 21 (60° C.) (pH 7.0, day 21, 60° C.): 0% | Purity(%) at day 0 (pH 8.0, day 0): 97.7 ± 0.3% | Purity(%) at day 21 (5° C.) (pH 8.0, day 21, 5° C.): 78.5 ± 0.2% | Purity(%) at day 21 (25° C.) (pH 8.0, day 21, 25° C.): 47.9 ± 0.3% | Purity(%) at day 21 (40° C.) (pH 8.0, day 21, 40° C.): 0% | Purity (%) at day 21 (60° C.) (pH 8.0, day 21, 60° C.): 0%

CCN(CC)CCOC(=O)CCc1ccc2cc(OC)ccc2c1.Cl
Purity(%) at day 0 (pH 1.0, day 0): 98.0 ± 0.3% | Purity(%) at day 21 (5° C.) (pH 1.0, day 21, 5° C.): 92.7 ± 0.3% | Purity(%) at day 21 (25° C.) (pH 1.0, day 21, 25° C.): 69.1 ± 0.3% | Purity(%) at day 21 (40° C.) (pH 1.0, day 21, 40° C.): 16.3 ± 0.3% | Purity (%) at day 21 (60° C.) (pH 1.0, day 21, 60° C.): 0% | Purity(%) at day 0 (pH 2.0, day 0): 98.1 ± 0.3% | Purity(%) at day 21 (5° C.) (pH 2.0, day 21, 5° C.): 95.9 ± 0.3% | Purity(%) at day 21 (25° C.) (pH 2.0, day 21, 25° C.): 83.5 ± 0.3% | Purity(%) at day 21 (40° C.) (pH 2.0, day 21, 40° C.): 27.5 ± 0.3% | Purity (%) at day 21 (60° C.) (pH 2.0, day 21, 60° C.): 0% | Purity(%) at day 0 (pH 3.0, day 0): 98.3 ± 0.2% | Purity(%) at day 21 (5° C.) (pH 3.0, day 21, 5° C.): 97.4 ± 0.3% | Purity(%) at day 21 (25° C.) (pH 3.0, day 21, 25° C.): 94.6 ± 0.2% | Purity(%) at day 21 (40° C.) (pH 3.0, day 21, 40° C.): 49.3 ± 0.2% | Purity (%) at day 21 (60° C.) (pH 3.0, day 21, 60° C.): 0% | Purity(%) at day 0 (pH 3.7, day 0): 98.4 ± 0.2% | Purity(%) at day 21 (5° C.) (pH 3.7, day 21, 5° C.): 97.7 ± 0.2% | Purity(%) at day 21 (25° C.) (pH 3.7, day 21, 25° C.): 97.3 ± 0.2% | Purity(%) at day 21 (40° C.) (pH 3.7, day 21, 40° C.): 59.9 ± 0.2% | Purity (%) at day 21 (60° C.) (pH 3.7, day 21, 60° C.): 19.3 ± 0.3% | Purity(%) at day 0 (pH 4.0, day 0): 98.5 ± 0.1% | Purity(%) at day 21 (5° C.) (pH 4.0, day 21, 5° C.): 98.2 ± 0.2% | Purity(%) at day 21 (25° C.) (pH 4.0, day 21, 25° C.): 97.5 ± 0.2% | Purity(%) at day 21 (40° C.) (pH 4.0, day 21, 40° C.): 70.7 ± 0.2% | Purity (%) at day 21 (60° C.) (pH 4.0, day 21, 60° C.): 23.6 ± 0.3% | Purity(%) at day 0 (pH 4.3, day 0): 98.5 ± 0.2% | Purity(%) at day 21 (5° C.) (pH 4.3, day 21, 5° C.): 98.2 ± 0.2% | Purity(%) at day 21 (25° C.) (pH 4.3, day 21, 25° C.): 97.6 ± 0.1% | Purity(%) at day 21 (40° C.) (pH 4.3, day 21, 40° C.): 70.1 ± 0.2% | Purity (%) at day 21 (60° C.) (pH 4.3, day 21, 60° C.): 27.7 ± 0.2% | Purity(%) at day 0 (pH 4.6, day 0): 98.5 ± 0.1% | Purity(%) at day 21 (5° C.) (pH 4.6, day 21, 5° C.): 98.2 ± 0.2% | Purity(%) at day 21 (25° C.) (pH 4.6, day 21, 25° C.): 97.5 ± 0.2% | Purity(%) at day 21 (40° C.) (pH 4.6, day 21, 40° C.): 59.3 ± 0.2% | Purity (%) at day 21 (60° C.) (pH 4.6, day 21, 60° C.): 22.3 ± 0.2% | Purity(%) at day 0 (pH 5.0, day 0): 98.4 ± 0.2% | Purity(%) at day 21 (5° C.) (pH 5.0, day 21, 5° C.): 97.5 ± 0.2% | Purity(%) at day 21 (25° C.) (pH 5.0, day 21, 25° C.): 94.9 ± 0.2% | Purity(%) at day 21 (40° C.) (pH 5.0, day 21, 40° C.): 45.8 ± 0.3% | Purity (%) at day 21 (60° C.) (pH 5.0, day 21, 60° C.): 5.9 ± 0.2% | Purity(%) at day 0 (pH 6.0, day 0): 98.2 ± 0.2% | Purity(%) at day 21 (5° C.) (pH 6.0, day 21, 5° C.): 95.3 ± 0.2% | Purity(%) at day 21 (25° C.) (pH 6.0, day 21, 25° C.): 88.8 ± 0.2% | Purity(%) at day 21 (40° C.) (pH 6.0, day 21, 40° C.): 28.6 ± 0.2% | Purity (%) at day 21 (60° C.) (pH 6.0, day 21, 60° C.): 0% | Purity(%) at day 0 (pH 7.0, day 0): 98.0 ± 0.3% | Purity(%) at day 21 (5° C.) (pH 7.0, day 21, 5° C.): 90.2 ± 0.3% | Purity(%) at day 21 (25° C.) (pH 7.0, day 21, 25° C.): 60.9 ± 0.2% | Purity(%) at day 21 (40° C.) (pH 7.0, day 21, 40° C.): 17.4 ± 0.3% | Purity (%) at day 21 (60° C.) (pH 7.0, day 21, 60° C.): 0% | Purity(%) at day 0 (pH 8.0, day 0): 97.7 ± 0.3% | Purity(%) at day 21 (5° C.) (pH 8.0, day 21, 5° C.): 79.7 ± 0.3% | Purity(%) at day 21 (25° C.) (pH 8.0, day 21, 25° C.): 49.9 ± 0.3% | Purity(%) at day 21 (40° C.) (pH 8.0, day 21, 40° C.): 0% | Purity (%) at day 21 (60° C.) (pH 8.0, day 21, 60° C.): 0%
